According to patent US7405235B2, “Transcription factor modulating compounds and methods of use thereof” (Paratek Pharmaceuticals, Inc., priority 2001, dated 2008):

Biological target: MarA (Escherichia coli, UniProt P0ACH5)
Experiment: MarA-activated selective marker (ccdB) cell survival assay, Example 2
Assay type: cell-based
Design: key: * indicates good inhibition of MarA; ** indicates very good inhibition of MarA
Details: inhibition of MarA: cell survival under conditions of MarA expression (ccdB under MarA-activated promoter)
Excerpt: In the absence of Mar A, the expression of the selective marker would be silent. For example, in the case of regulation of the cytotoxic gene ccdB, the gene would be silent and the cells would survive. Synthesis of MarA from an inducible plasmid in a suitable host would result in the activation of the MarA responsive activatable promoter and expression of the selective marker. In the case of ccdB, the gene would be expressed and result in cell death. Compounds that inhibit MarA would be identified as those that permit cell survival under conditions of MarA expression.
In the absence of MarA, the expression of the selective marker is silent and cells survive. Synthesis of MarA from an inducible plasmid in a bacterial or yeast cell leads to the activation of the inaA promoter, expression of ccdB, and subsequently results in cell death. Compounds that inhibit MarA are those that permit cell survival under conditions of MarA expression. In Table 4, * indicates good inhibition of MarA and ** indicates very good inhibition of MarA.

Chain of MarA (P0ACH5 whole entry, looked up): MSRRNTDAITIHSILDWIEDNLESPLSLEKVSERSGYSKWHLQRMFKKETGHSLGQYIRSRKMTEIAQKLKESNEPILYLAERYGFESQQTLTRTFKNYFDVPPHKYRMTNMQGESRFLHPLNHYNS

Structure (SMILES)	MarA inhibition class
CCOC(=O)C1=C(C)N=c2sc(=Cc3ccc(-c4ccc(C)c([N+](=O)[O-])c4)o3)c(=O)n2C1c1ccc(N(C)C)cc1 (centres unmarked) [X, 5-(4-Dimethylamino-phenyl)-7-methyl-2-[5-(4-methyl-3-nitro-phenyl)-furan-2-ylmethylene]-3-oxo-2,3-dihydro-5H-thiazolo[3,2-a]pyrimidine-6-carboxylicacid ethyl ester]	**
O=C1C=Cc2ccccc2/C1=N/Oc1ccc2noc3c2c1C(=O)c1ccccc1-3 [Z, [1,2]Naphthoquinone 1-[O-(6-oxo-6H-anthra[1,9-cd]isoxazol-5-yl)-oxime]]	*
